{
  "source": "paper PMC12287436",
  "about": "(Scientific Reports, 2025)",
  "origin": "cited, not measured here",
  "details": "rabbits; 2% instillation dose",
  "note": "Counter-ions that a name gives are not always drawn.",
  "data": [
    {"molecule": "CCN[C@H]1C[C@H](C)S(=O)(=O)c2sc(S(N)(=O)=O)cc21", "note": "[dorzolamide hydrochloride]", "values": [
      {"measurement": "Retinal concentration", "value": 2.8, "unit": "µM"}
    ]}
  ]
}
